Measurements from ChEMBL document CHEMBL3045518, “Synthesis of novel 3-[5-ethyl-2-(2-phenoxy-ethyl)-pyridin]-5-substituted isoxazoline libraries via 1,3-dipolar cycloaddition and evaluation of antimicrobial activities” (2006).
Converted amounts (≈) assume the structure as drawn.

Assays:
Type in all cases: functional
Escherichia coli [1] = test: Antibacterial activity against Escherichia coli by microdilution method
Fusarium oxysporum [2] = test: Antifungal activity against Fusarium oxysporum after 48 hr by microdilution method
Aspergillus niger [3] = test: Antifungal activity against Aspergillus niger at 25 ug/disk after 48 hr by disk diffusion method; conditions: for zone of inhibition at 25 µg/disc: read-out: DIZ
Aspergillus niger [4] = test: Antifungal activity against Aspergillus niger after 48 hr by microdilution method
Penicillium sp. [5] = test: Antifungal activity against Penicillium sp. after 48 hr by microdilution method
Bacillus subtilis [6] = test: Antibacterial activity against Bacillus subtilis by microdilution method
Pseudomonas fluorescens [7] = test: Antibacterial activity against Pseudomonas fluorescens at 25 ug/disk after 24 hr by disk diffusion method; conditions: read-out: DIZ
Fusarium oxysporum [8] = test: Antifungal activity against Fusarium oxysporum at 25 ug/disk after 48 hr by disk diffusion method; conditions: for zone of inhibition at 25 µg/disc: read-out: DIZ
Aspergillus flavus [9] = test: Antifungal activity against Aspergillus flavus after 48 hr by microdilution method
Aspergillus flavus [10] = test: Antifungal activity against Aspergillus flavus at 25 ug/disk after 48 hr by disk diffusion method; conditions: for zone of inhibition at 25 µg/disc: read-out: DIZ
Escherichia coli [11] = test: Antibacterial activity against Escherichia coli at 25 ug/disk after 24 hr by disk diffusion method; conditions: read-out: DIZ
Xanthomonas oryzae [12] = test: Antibacterial activity against Xanthomonas oryzae at 25 ug/disk after 24 hr by disk diffusion method; conditions: read-out: DIZ
Pseudomonas fluorescens [13] = test: Antibacterial activity against Pseudomonas fluorescens by microdilution method
Trichoderma [14] = test: Antifungal activity against Trichoderma sp. after 48 hr by microdilution method
Fusarium verticillioides [15] = test: Antifungal activity against Fusarium verticillioides after 48 hr by microdilution method
Penicillium sp. [16] = test: Antifungal activity against Penicillium sp. at 25 ug/disk after 48 hr by disk diffusion method; conditions: for zone of inhibition at 25 µg/disc: read-out: DIZ
[17] = test system: Xanthomonas euvesicatoria pv. sesami; test: Antibacterial activity against Xanthomonas campestris pv. sesami by microdilution method
[18] = test system: Xanthomonas euvesicatoria pv. sesami; test: Antibacterial activity against Xanthomonas campestris pv. sesami at 25 ug/disk after 24 hr by disk diffusion method; conditions: read-out: DIZ
Trichoderma [19] = test: Antifungal activity against Trichoderma sp. at 25 ug/disk after 48 hr by disk diffusion method; conditions: for zone of inhibition at 25 µg/disc: read-out: DIZ
Fusarium verticillioides [20] = test: Antifungal activity against Fusarium verticillioides at 25 ug/disk after 48 hr by disk diffusion method; conditions: for zone of inhibition at 25 µg/disc: read-out: DIZ
Xanthomonas oryzae [21] = test: Antibacterial activity against Xanthomonas oryzae by microdilution method
Bacillus subtilis [22] = test: Antibacterial activity against Bacillus subtilis at 25 ug/disk after 24 hr by disk diffusion method; conditions: read-out: DIZ

| Molecule | MIC (Escherichia coli [1]) [µg/mL] | MIC (Fusarium oxysporum [2]) [µg/mL] | zone of inhibition at 25 µg/disc (Aspergillus niger [3]) [mm] | MIC (Aspergillus niger [4]) [µg/mL] | MIC (Penicillium sp. [5]) [µg/mL] | MIC (Bacillus subtilis [6]) [µg/mL] | zone of inhibition at 25 µg/disc (Pseudomonas fluorescens [7]) [mm] | zone of inhibition at 25 µg/disc (Fusarium oxysporum [8]) [mm] | MIC (Aspergillus flavus [9]) [µg/mL] | zone of inhibition at 25 µg/disc (Aspergillus flavus [10]) [mm] | zone of inhibition at 25 µg/disc (Escherichia coli [11]) [mm] | zone of inhibition at 25 µg/disc (Xanthomonas oryzae [12]) [mm] | MIC (Pseudomonas fluorescens [13]) [µg/mL] | MIC (Trichoderma [14]) [µg/mL] | MIC (Fusarium verticillioides [15]) [µg/mL] | zone of inhibition at 25 µg/disc (Penicillium sp. [16]) [mm] | MIC [17] [µg/mL] | zone of inhibition at 25 µg/disc [18] [mm] | MIC (Xanthomonas oryzae [21]) [µg/mL] | zone of inhibition at 25 µg/disc (Bacillus subtilis [22]) [mm] | further results |
| --- | --- | --- | --- | --- | --- | --- | --- | --- | --- | --- | --- | --- | --- | --- | --- | --- | --- | --- | --- | --- | --- |
| CCc1ccc(CCOc2ccc(C3=NOC(CO)C3)cc2)nc1 (stereo not drawn) | 14 (≈ 42.9 µM) | 10 (≈ 30.6 µM) | 8 | 15 (≈ 46 µM) | 9 (≈ 27.6 µM) | 18 (≈ 55.1 µM) | 17 | 15 | 16 (≈ 49 µM) | 9 | 13 | 13 | 12 (≈ 36.8 µM) | 13 (≈ 39.8 µM) | 10 (≈ 30.6 µM) | 11 | 10 (≈ 30.6 µM) | 13 | 12 (≈ 36.8 µM) | 14 | zone of inhibition at 25 µg/disc (Trichoderma [19]): 15 mm; zone of inhibition at 25 µg/disc (Fusarium verticillioides [20]): 12 mm |
| CCc1ccc(CCOc2ccc(C3=NOC(Cc4ccc5c(c4)OCO5)C3)cc2)nc1 (stereo not drawn) | 22 (≈ 51.1 µM) | 22 (≈ 51.1 µM) | 3 | 22 (≈ 51.1 µM) | 21 (≈ 48.8 µM) | 25 (≈ 58.1 µM) | 7 | 4 | 21 (≈ 48.8 µM) | 3 | 6 | 3 | 20 (≈ 46.5 µM) | 20 (≈ 46.5 µM) | 18 (≈ 41.8 µM) | 2 | 21 (≈ 48.8 µM) | 4 | 22 (≈ 51.1 µM) | 5 | zone of inhibition at 25 µg/disc (Trichoderma [19]): 4 mm; zone of inhibition at 25 µg/disc (Fusarium verticillioides [20]): 3 mm |
| CN(C)[C@@H]1C(O)=C(C(N)=O)C(=O)[C@@]2(O)C(O)=C3C(=O)c4c(O)cccc4[C@@](C)(O)[C@H]3C[C@@H]12 [TETRACYCLINE] |  |  |  |  |  |  |  |  |  |  |  | 12 |  |  |  |  | 9 (≈ 20.3 µM) | 12 | 13 (≈ 29.3 µM) |  |  |
| CCc1ccc(CCOc2ccc(C3=NOC(c4ccccc4)C3)cc2)nc1 (stereo not drawn) | 28 (≈ 75.2 µM) | 21 (≈ 56.4 µM) | 3 | 22 (≈ 59.1 µM) | 23 (≈ 61.8 µM) | 27 (≈ 72.5 µM) | 6 | 4 | 24 (≈ 64.4 µM) | 4 | 6 | 4 | 26 (≈ 69.8 µM) | 20 (≈ 53.7 µM) | 20 (≈ 53.7 µM) | 3 | 27 (≈ 72.5 µM) | 4 | 25 (≈ 67.1 µM) | 5 | zone of inhibition at 25 µg/disc (Trichoderma [19]): 6 mm; zone of inhibition at 25 µg/disc (Fusarium verticillioides [20]): 3 mm |
| CCc1ccc(CCOc2ccc(C3=NOC(C(=O)OC)C3)cc2)nc1 (stereo not drawn) | 24 (≈ 67.7 µM) | 20 (≈ 56.4 µM) | 3 | 22 (≈ 62.1 µM) | 24 (≈ 67.7 µM) | 27 (≈ 76.2 µM) | 5 | 4 | 24 (≈ 67.7 µM) | 4 | 6 | 3 | 22 (≈ 62.1 µM) | 20 (≈ 56.4 µM) | 22 (≈ 62.1 µM) | 2 | 22 (≈ 62.1 µM) | 3 | 27 (≈ 76.2 µM) | 5 | zone of inhibition at 25 µg/disc (Trichoderma [19]): 5 mm; zone of inhibition at 25 µg/disc (Fusarium verticillioides [20]): 3 mm |
| CCc1ccc(CCOc2ccc(C3=NOC(Cc4ccc(O)c(OC)c4)C3)cc2)nc1 (stereo not drawn) | 14 (≈ 32.4 µM) | 12 (≈ 27.7 µM) | 7 | 16 (≈ 37 µM) | 11 (≈ 25.4 µM) | 18 (≈ 41.6 µM) | 18 | 13 | 15 (≈ 34.7 µM) | 10 | 14 | 12 | 12 (≈ 27.7 µM) | 13 (≈ 30.1 µM) | 10 (≈ 23.1 µM) | 9 | 10 (≈ 23.1 µM) | 13 | 13 (≈ 30.1 µM) | 12 | zone of inhibition at 25 µg/disc (Trichoderma [19]): 15 mm; zone of inhibition at 25 µg/disc (Fusarium verticillioides [20]): 11 mm |
| CCc1ccc(CCOc2ccc(C3=NOC(C#N)C3)cc2)nc1 (stereo not drawn) | 21 (≈ 65.3 µM) | 19 (≈ 59.1 µM) | 2 | 20 (≈ 62.2 µM) | 20 (≈ 62.2 µM) | 27 (≈ 84 µM) | 6 | 5 | 21 (≈ 65.3 µM) | 3 | 7 | 4 | 23 (≈ 71.6 µM) | 20 (≈ 62.2 µM) | 18 (≈ 56 µM) | 2 | 20 (≈ 62.2 µM) | 5 | 22 (≈ 68.5 µM) | 7 | zone of inhibition at 25 µg/disc (Trichoderma [19]): 4 mm; zone of inhibition at 25 µg/disc (Fusarium verticillioides [20]): 10 mm |
| CCc1ccc(CCOc2ccc(C3=NOC(Cc4ccc(OC)c(OC)c4)C3)cc2)nc1 (stereo not drawn) | 15 (≈ 33.6 µM) | 13 (≈ 29.1 µM) | 6 | 18 (≈ 40.3 µM) | 12 (≈ 26.9 µM) | 20 (≈ 44.8 µM) | 14 | 12 | 17 (≈ 38.1 µM) | 7 | 15 | 9 | 15 (≈ 33.6 µM) | 15 (≈ 33.6 µM) | 11 (≈ 24.6 µM) | 8 | 11 (≈ 24.6 µM) | 10 | 15 (≈ 33.6 µM) | 14 | zone of inhibition at 25 µg/disc (Trichoderma [19]): 13 mm; zone of inhibition at 25 µg/disc (Fusarium verticillioides [20]): 10 mm |
| NYSTATIN |  | 11 |  | 15 | 10 |  |  |  | 15 |  |  |  |  | 12 | 9 |  |  |  |  |  | inhibition zone (IZ) (Aspergillus niger [3]): 8 mm; inhibition zone (IZ) (Fusarium oxysporum [8]): 14 mm; inhibition zone (IZ) (Aspergillus flavus [10]): 10 mm; inhibition zone (IZ) (Penicillium sp. [16]): 10 mm; inhibition zone (IZ) (Trichoderma [19]): 16 mm; inhibition zone (IZ) (Fusarium verticillioides [20]): 12 mm |
| CCOC(=O)C1CC(c2ccc(OCCc3ccc(CC)cn3)cc2)=NO1 (stereo not drawn) | 16 (≈ 43.4 µM) | 14 (≈ 38 µM) | 6 | 17 (≈ 46.1 µM) | 11 (≈ 29.9 µM) | 20 (≈ 54.3 µM) | 13 | 11 | 18 (≈ 48.9 µM) | 8 | 12 | 9 | 16 (≈ 43.4 µM) | 14 (≈ 38 µM) | 12 (≈ 32.6 µM) | 8 | 14 (≈ 38 µM) | 9 | 16 (≈ 43.4 µM) | 11 | zone of inhibition at 25 µg/disc (Trichoderma [19]): 12 mm; zone of inhibition at 25 µg/disc (Fusarium verticillioides [20]): 9 mm |
| CN[C@@H]1[C@H](O[C@H]2[C@H](O[C@H]3[C@H](O)[C@@H](O)[C@H](N=C(N)N)[C@@H](O)[C@@H]3N=C(N)N)O[C@@H](C)[C@]2(O)C=O)O[C@@H](CO)[C@H](O)[C@H]1O [STREPTOMYCIN] | 13 (≈ 22.4 µM) |  |  |  |  | 19 (≈ 32.7 µM) | 17 |  |  |  | 14 |  | 12 (≈ 20.6 µM) |  |  |  |  |  |  | 13 |  |
